Assays:
[1] = system: THP-1 (acute monocyte leukemia) cells; assay: Cytotoxicity of NK cells to leukemia cells (THP-1); type: cell-based; settings: NK cells treated with ponatinib 500 nM for 6 hrs, co-cultured 48 hours
Source text: (§1) IL-2 is a well-known activator of effector cells such as NK cells.

[2] = system: HL-60 (acute promyelocytic leukemia) cells; assay: Cytotoxicity of NK cells to leukemia cells (HL-60); type: cell-based; settings: NK cells treated with ponatinib 500 nM for 6 hrs, co-cultured 48 hours
Source text: as §1

[3] = system: KG-1 (acute myelogenous leukemia) cells; assay: Cytotoxicity of NK cells to leukemia cells (KG-1); type: cell-based; settings: NK cells treated with ponatinib 500 nM for 6 hrs, co-cultured 48 hours
Source text: as §1

[4] = system: MDA-MB-231 (breast cancer) cells; assay: Cytotoxicity of NK cells to solid tumor cells (MDA-MB-231); type: cell-based; settings: NK cells treated with 50 nM Ponatinib for 6 hrs, co-cultured 48 hrs
[5] = system: MIA PaCa-2 (pancreatic cancer) cells; assay: Cytotoxicity of NK cells to solid tumor cells (MIA PaCa-2); type: cell-based; settings: NK cells treated with 200 nM Ponatinib for 6 hrs, co-cultured 48 hrs
[6] = system: SNU-245, the biliary tract cancer cell line; assay: 4 hr cytotoxic activity assay of pretreated NK cells against SNU-245; type: cell-based, human; settings: FIG. 4; ponatinib 150 nM 24 hrs, washed; E:T 3:1, 1:1, 0.3:1 for 4 hrs
Source text: (§2) NK cells (effector cells) were co-cultured with cancer cells (target cells; SNU-245 and AGS cells) at the effector-to-target (E:T) cell count ratio (3:1, 1:1, 0.3:1) for 4 hrs.

[7] = system: AGS, the stomach cancer cell line; assay: 4 hr cytotoxic activity assay of pretreated NK cells against AGS; type: cell-based, human; settings: FIG. 4; ponatinib 150 nM 24 hrs, washed; E:T 3:1, 1:1, 0.3:1 for 4 hrs
Source text: as §2

NK cells = assay: Annexin V/7-AAD analysis of NK cells co-cultured with K562 cells; type: cell-based; settings: FIG. 11; ponatinib 150 nM 24 hrs, then K562 cells E:T 5:1 for 4 hrs; vs untreated cells
Procedure: After incubation, NK cells were collected and analyzed for cell death by annexin-V and 7-AAD analysis.

[8] = system: AGS (the stomach cancer cell line)
[9] = system: MDA-MB-231 (the breast cancer cell line)
human NK cells [10] = settings: FIG. 9; NK cells treated with ponatinib 50 or 150 nM 24 hrs, tail vein, one day after injection; vs non-treated NK cells
[11] = system: Huh-7.5 (hepatic cell line showing subgenomic and genomic hepatitis C virus RNA replication); assay: Cytotoxicity of NK cells to virus-transformed cell lines (Huh-7.5); settings: NK cells treated with ponatinib 150 nM for 16 hours, co-cultured 48 hours
[12] = system: HepG2.2.15 (hepatic cell transformed with hepatitis B virus and producing HBV); assay: Cytotoxicity of NK cells to virus-transformed cell lines (HepG2.2.15); settings: NK cells treated with ponatinib 150 nM for 16 hours, co-cultured 48 hours
human NK cells [13] = assay: NK cell cycle analysis by propidium iodide staining and flow cytometry; settings: FIG. 12; ponatinib 150 nM for 2 days; vs control NK cells
[14] = system: SNU-387 (the liver cancer cell line); assay: 2 day cytotoxicity assay of kinase inhibitor pretreated NK cells against SNU-387; settings: FIG. 7B; pretreatment 24 hrs; E:T 0.5:1, 48 hrs
[15] = system: SNU-245 (the biliary tract cancer cell line); assay: 2 day cytotoxicity assay against SNU-245 cells (pretreated or formulated NK cells, or ponatinib alone)
[16] = FIG. 5, high concentrations of ponatinib, 24 hrs, E:T 0.5:1 for 2 days
[17] = FIG. 8, ponatinib 150 nM 24 hrs, washed, E:T 0.5:1 for 2 days
[18] = FIG. 8, ponatinib added to target cells without NK cells, 2 days

SMILES: Cc1ccc(C(=O)Nc2ccc(CN3CCN(C)CC3)c(C(F)(F)F)c2)cc1C#Cc1cnc2cccnn12 [Ponatinib, 3-(2-imidazo[1,2-b]pyridazin-3-ylethynyl)-4-methyl-N-[4-[(4-methylpiperazin-1-yl)methyl]-3-(trifluoromethyl)phenyl]benzamide]
- Cytotoxicity of NK Cells to THP-1 Cells ([1]; E:T = 0.1:1, With IL-2): 79 ± 4%
- Cytotoxicity of NK Cells to THP-1 Cells ([1]; E:T = 0.1:1, Without IL-2): 20 ± 1%
- Cytotoxicity of NK Cells to THP-1 Cells ([1]; E:T = 1:1, With IL-2): 99 ± 0%
- Cytotoxicity of NK Cells to THP-1 Cells ([1]; E:T = 1:1, Without IL-2): 83 ± 1%
- Cytotoxicity of NK Cells to HL-60 Cells ([2]; E:T = 0.1:1, With IL-2): 76 ± 9%
- Cytotoxicity of NK Cells to HL-60 Cells ([2]; E:T = 0.1:1, Without IL-2): 13 ± 3%
- Cytotoxicity of NK Cells to HL-60 Cells ([2]; E:T = 1:1, With IL-2): 98 ± 2%
- Cytotoxicity of NK Cells to HL-60 Cells ([2]; E:T = 1:1, Without IL-2): 89 ± 4%
- Cytotoxicity of NK Cells to KG-1 Cells ([3]; E:T = 0.1:1, With IL-2): 93 ± 1%
- Cytotoxicity of NK Cells to KG-1 Cells ([3]; E:T = 0.1:1, Without IL-2): 81 ± 1%
- Cytotoxicity of NK Cells to KG-1 Cells ([3]; E:T = 1:1, With IL-2): 99 ± 1%
- Cytotoxicity of NK Cells to KG-1 Cells ([3]; E:T = 1:1, Without IL-2): 99 ± 1%
- Cytotoxicity of NK Cells to MDA-MB-231 Cells ([4]; E:T = 0.1:1, With IL-2): 28 ± 5%
- Cytotoxicity of NK Cells to MDA-MB-231 Cells ([4]; E:T = 0.1:1, Without IL-2): 34 ± 4%
- Cytotoxicity of NK Cells to MDA-MB-231 Cells ([4]; E:T = 0.5:1, With IL-2): 59 ± 8%
- Cytotoxicity of NK Cells to MDA-MB-231 Cells ([4]; E:T = 0.5:1, Without IL-2): 54 ± 8%
- Cytotoxicity of NK Cells to MIA PaCa-2 Cells ([5]; E:T = 0.1:1, With IL-2): 66 ± 5%
- Cytotoxicity of NK Cells to MIA PaCa-2 Cells ([5]; E:T = 0.1:1, Without IL-2): 43 ± 8%
- Cytotoxicity of NK Cells to MIA PaCa-2 Cells ([5]; E:T = 0.5:1, With IL-2): 100 ± 0%
- Cytotoxicity of NK Cells to MIA PaCa-2 Cells ([5]; E:T = 0.5:1, Without IL-2): 78 ± 2%
- cytotoxic activity of pretreated NK cells against SNU-245 [6]: strongly enhanced cytotoxicity
- cytotoxic activity of pretreated NK cells against AGS [7]: strongly enhanced cytotoxicity
- apoptotic NK cell population (Annexin V+/7-AAD− and Annexin V+/7-AAD+) (NK cells): significantly reduced
- necrotic NK cell population (Annexin V−/7-AAD+) (NK cells): significantly reduced
- cytotoxic activity of ponatinib-pretreated NK cells against AGS [8, 16]: decreased
- viability of AGS cancer cells co-cultured with NK cells pretreated with ponatinib [8, 17]: significantly decreased
- cytotoxic activity of ponatinib treatment alone against AGS [8, 18]: did not show cytotoxic activity
- cytotoxic activity of ponatinib-pretreated NK cells against MDA-MB-231 [9, 16]: decreased
- viability of MDA-MB-231 cancer cells co-cultured with NK cells pretreated with ponatinib [9, 17]: significantly decreased
- cytotoxic activity of ponatinib treatment alone against MDA-MB-231 [9, 18]: did not show cytotoxic activity
- total human NK cells in blood of injected mice (human NK cells [10]): more human NK cells
- viability of human NK cells in blood of injected mice (human NK cells [10]): higher viability
- Cytotoxicity of NK Cells to Hur-7.5 Cells ([11]; E:T = 0.1:1, W/IL-2): 76%
- Cytotoxicity of NK Cells to Hur-7.5 Cells ([11]; E:T = 0.1:1, W/O IL-2): 48%
- Cytotoxicity of NK Cells to Hur-7.5 Cells ([11]; E:T = 0.5:1, W/IL-2): 96%
- Cytotoxicity of NK Cells to Hur-7.5 Cells ([11]; E:T = 0.5:1, W/O IL-2): 78%
- Cytotoxicity of NK Cells to HepG2.2.15 Cells ([12]; E:T = 0.1:1, With IL-2): 75%
- Cytotoxicity of NK Cells to HepG2.2.15 Cells ([12]; E:T = 0.1:1, Without IL-2): 59%
- Cytotoxicity of NK Cells to HepG2.2.15 Cells ([12]; E:T = 0.5:1, With IL-2): 88%
- Cytotoxicity of NK Cells to HepG2.2.15 Cells ([12]; E:T = 0.5:1, Without IL-2): 74%
- fraction of G0/G1 phases of NK cells (human NK cells [13]): concomitant decrease
- fraction of S and G2/M phases of NK cells (human NK cells [13]): increased
- anti-cancer cytotoxicity of kinase inhibitor pretreated NK cells against SNU-387 vs untreated NK cells [14]: higher anti-cancer cytotoxicity
- anti-cancer cytotoxicity of kinase inhibitor pretreated NK cells against SNU-245 vs untreated NK cells ([15]; FIG. 7A, pretreatment 24 hrs, E:T 0.5:1, 48 hrs): higher anti-cancer cytotoxicity
- viability of SNU-245 cancer cells co-cultured with NK cells pretreated with ponatinib [15, 17]: significantly decreased
- cytotoxic activity of ponatinib treatment alone against SNU-245 [15, 18]: did not show cytotoxic activity
